# Assay results: patent publication US8658190B2 (priority 2005, dated 2014)
# Where two headings read alike, the source gives them in different places.
# What was measured:
# bacterial spores = details: background statement, cited from earlier work
# mycobacteria [1] = test: mycobactericidal / tuberculocidal activity (exposure time); format: cell-based
# [2] = stability of glutaraldehyde concentration in solution; format: physicochemical; details: composition buffered to about pH 7.3 to 7.9
# mycobacteria [3] = details: 25 C, background statement; cited from earlier work
compound,measurement,setting,value
"O=Cc1ccccc1C=O [Ortho-phthaladehyde, ortho-phthalaldehyde]",time to kill bacterial spores,bacterial spores; temperature not given,about 32 hrs
O=CCCCC=O [Glutaraldehyde],tuberculocidal activity,"mycobacteria [1]; 2.0% glutaraldehyde alone, 20° C., exposure time of 10 min",nor is 2.0% glutaraldehyde tuberculocidal
same,time glutaraldehyde is stable during use and re-use,[2],about 14 days
same,time to kill bacterial spores,bacterial spores; 25 C,about 10.0 hrs
same,time to kill 6 log 10 of mycobacteria,mycobacteria [3],about 45 min
CCO [Alcohol],tuberculocidal activity,"mycobacteria [1]; alcohol alone, 5% to 20% by volume",not tuberculocidal
